The values that follow come from ChEMBL document CHEMBL4715785, “Pyrazolo[1,5a]pyrimidines as a new class of FUSE binding protein 1 (FUBP1) inhibitors” (Bioorg Med Chem, 2016).

Activity calls are given as the source filed them. No cut-off for these calls is given here. Where only a bound is given, the exact number is not on record here.

In assay [1] the target is T1, Far upstream element-binding protein 1 (Homo sapiens, UniProt Q96AE4).
T1 sequence (Q96AE4 whole entry): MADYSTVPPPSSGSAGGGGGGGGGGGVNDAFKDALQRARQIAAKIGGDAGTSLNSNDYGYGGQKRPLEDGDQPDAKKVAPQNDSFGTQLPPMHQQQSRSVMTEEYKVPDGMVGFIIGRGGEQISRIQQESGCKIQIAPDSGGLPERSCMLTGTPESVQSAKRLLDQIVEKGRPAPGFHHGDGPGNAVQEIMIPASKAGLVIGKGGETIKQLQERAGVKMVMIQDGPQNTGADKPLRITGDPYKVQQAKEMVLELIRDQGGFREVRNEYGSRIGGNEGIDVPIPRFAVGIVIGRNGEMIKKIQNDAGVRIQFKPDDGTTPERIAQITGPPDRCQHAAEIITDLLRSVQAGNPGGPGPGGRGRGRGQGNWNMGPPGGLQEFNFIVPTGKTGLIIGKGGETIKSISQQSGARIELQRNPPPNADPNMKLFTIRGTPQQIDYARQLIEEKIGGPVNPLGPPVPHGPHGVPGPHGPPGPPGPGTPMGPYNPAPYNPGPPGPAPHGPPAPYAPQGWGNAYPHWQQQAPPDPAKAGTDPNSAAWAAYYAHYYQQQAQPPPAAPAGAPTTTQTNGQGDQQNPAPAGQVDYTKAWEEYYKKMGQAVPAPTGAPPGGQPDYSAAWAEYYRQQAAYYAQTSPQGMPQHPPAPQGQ
Kind of assay: Inhibition of 6xHis-tagged human FUBP1 expressed in HEK293T cells assessed as reduction in FUBP1 interaction with biotinylated NLC chip immobilized FUSE p21 oligonucleotide incubated for 21 hrs by SPR analysis. (Surface plasmon resonance follows binding to a sensor surface in real time, without labels.)

The subject of assay [2] is Hep 3B2. Put plainly: Cell cycle arrest in human Hep3B cells assessed as accumulation at sub-G1 phase at 10 uM measured after 24 hrs by propidium iodide and RNase A staining based Nicoletti assay (reference value: 2.5 %). Type of assay: functional.
Assay [3] has as its system Hep 3B2. Put plainly: Induction of cell death in human Hep3B cells assessed as increase in number of dead cells at 10 to 20 uM measured after 24 hrs. The assay is classed as functional, cell-based. The note with it: dose 10-20 µM.
Assay [4] concerns HepG2. Kind of assay: Induction of cell death in human HepG2 cells assessed as increase in number of dead cells at 10 to 20 uM measured after 72 hrs. Type of assay: functional, cell-based. The note with it: dose 10-20 µM.
Assay [5] concerns HepG2. Kind of assay: Decrease in cell expansion in human HepG2 cells at 10 to 20 uM measured after 48 to 72 hrs by Neubauer chamber method. The note with it: dose 10-20 µM, time 48-72 hrs. Type of assay: functional, cell-based.
Assay [6] concerns Hep 3B2. Put plainly: Cell cycle arrest in human Hep3B cells assessed as accumulation at sub-G1 phase at 20 uM measured after 24 hrs by propidium iodide and RNase A staining based Nicoletti assay (reference value: 2.5 %). The assay is classed as functional.
Assay [7] relates to Huh-7. Put plainly: Decrease in cell expansion in human Huh-7 cells at 10 to 20 uM measured after 24 hrs by Neubauer chamber method. Type of assay: functional, cell-based. The note with it: dose 10-20 µM.
In assay [8] the test system is Hep 3B2. Put plainly: Decrease in cell expansion in human Hep3B cells at 10 to 20 uM measured after 48 to 72 hrs by Neubauer chamber method. Type of assay: functional, cell-based. The note with it: dose 10-20 µM, time 48-72 hrs.

Usually IC50 stands for the concentration needed to halve the response being measured. For the compound `COc1ccc(-c2cc(C(F)(F)F)n3nc(-c4ccccc4)cc3n2)cc1OC`, the IC50 result in assay [1] (hek293t) is “Not Active”. In the case of `FC(F)(F)c1cc(-c2ccc3ccccc3c2)nc2cc(-c3ccco3)nn12`, the concentration for half-maximal inhibition (IC50) entry in assay [1] (hek293t) is listed as “Not Active”. On the same count and under the same terms, to `FC(F)(F)c1cc(-c2ccco2)nc2cc(-c3ccco3)nn12` belongs “Not Active”; to `FC(F)(F)c1cc(-c2ccc(Cl)cc2)nc2cc(-c3ccco3)nn12`, “Not Active”. In the case of `FC(F)(F)c1cc(-c2ccc(Cl)cc2)nc2cc(-c3cccs3)nn12`, the IC50 in assay [1] (read-out: IC50) is > 100 µM. As to `FC(F)(F)c1cc(-c2ccccc2)nc2cc(-c3cccs3)nn12`, the IC50 in assay [1] (read-out: IC50) is > 100 µM. As to `FC(F)(F)c1cc(-c2ccc(Cl)cc2)nc2cc(C3CC3)nn12`, the IC50 result in assay [1] (hek293t) was “Not Active”. Turning to `FC(F)(F)c1cc(-c2ccncc2)nc2cc(-c3ccco3)nn12`, in assay [1] (hek293t), the IC50 result is recorded as “Not Active”. Turning to `Cc1cc(C(F)(F)F)n2nc(-c3cccs3)cc2n1`, in assay [1] (hek293t), the IC50 entry is on record as “Not Active”. In the case of `FC(F)(F)c1cc(-c2ccc3c(c2)OCO3)nc2cc(-c3ccco3)nn12`, the IC50 result in assay [1] (hek293t) is “Not Active”. Regarding `COc1ccc(-c2cc(C(F)(F)F)n3nc(C4CC4)cc3n2)cc1OC`, the IC50 in assay [1] (read-out: IC50) was found to be 102 µM. For `FC(F)(F)c1cc(-c2cccs2)nc2cc(-c3cccs3)nn12`, the IC50 in assay [1] (read-out: IC50) was > 100 µM. Take `O=[N+]([O-])c1cccc(-c2cc(C(F)(F)F)n3nc(-c4ccco4)cc3n2)c1`: the IC50 result in assay [1] (hek293t) is “Not Active”. The same measure, in the same setting: with `COc1ccc(-c2cc(C(F)(F)F)n3nc(-c4ccc(Cl)cc4)cc3n2)cc1OC` the entry was “Not Active”; with `Fc1ccc(-c2cc(C(F)(F)F)n3nc(-c4cccs4)cc3n2)cc1`, “Not Active”. Turning to `COc1ccc(-c2cc(C(F)(F)F)n3nc(-c4cccs4)cc3n2)cc1`, the IC50 in assay [1] (read-out: IC50) is > 100 µM. On to `FC(F)(F)c1cc(-c2ccc3c(c2)CCC3)nc2cc(-c3ccco3)nn12`, for which, in assay [1] (hek293t), the IC50 entry is “Not Active”.

For `FC(F)(F)c1cc(-c2cccnc2)nc2cc(-c3cccs3)nn12`, the IC50 in assay [1] (read-out: IC50) is > 100 µM. With `Cc1cc2nc(-c3ccncc3)cc(C(F)(F)F)n2n1`, the IC50 entry in assay [1] (hek293t) is “Not Active”. With `COc1ccc(-c2cc(C(F)(F)F)n3nc(C(C)(C)C)cc3n2)cc1OC`, the IC50 result in assay [1] (hek293t) was “Not Active”.

Take `FC(F)(F)c1cc(-c2cccc(Cl)c2)nc2cc(-c3cccs3)nn12`: the IC50 result in assay [1] (hek293t) is given as “Not Active”. In the case of `FC(F)(F)c1cc(-c2nccs2)nc2cc(-c3cccs3)nn12`, in assay [1] (hek293t), the IC50 entry is “Not Active”. In the case of `FC(F)(F)c1cc(-c2ccccn2)nc2cc(C3CC3)nn12`, the IC50 result in assay [1] (hek293t) is reported as “Not Active”. `COc1ccc(-c2cc(C(F)(F)F)n3nc(-c4cccs4)cc3n2)cc1OC`: the Activity in assay [2] was found to be 7.7%; in assay [6] it was 16.1%. The outcome in assay [3], in assay [5], in assay [7] and in assay [8] was Active. Also, the outcome in assay [4] was inactive. In the case of `FC(F)(F)c1cc(-c2ccncc2)nc2cc(-c3cccs3)nn12`, the IC50 in assay [1] (read-out: IC50) is > 100 µM. For `COc1ccc(-c2cc(C(F)(F)F)n3nc(-c4ccco4)cc3n2)cc1`, the half-maximal inhibitory concentration (IC50) entry in assay [1] (hek293t) is given as “Not Active”. For `FC(F)(F)c1cc(-c2cccs2)nc2cc(-c3ccco3)nn12`, the IC50 entry in assay [1] (hek293t) is given as “Not Active”.
